Measurements as given in patent publication US8314082B2, “Stilbene derivatives for ADP-ribosyl cyclase inhibitors” (Industrial Cooperation Foundation Chonbuk National …, priority 2006, dated 2012).

Key:
[1] = test system: Ang II induced cADPR production in rat cardiomyocytes; assay: Ang II-induced [cADPR]i in cardiomyocytes; type: cell-based; details: pretreatment
Experimental: [cADPR]i was measured using a cyclic enzymatic assay as described previously [Graeff et al., Biochem. J. (2002)361:379-84]. Aplysia californica ADPR-cyclase was purified from […] according to the method described [Lee et al., Cell Regul. (1991)2:203-9]. Briefly, MMCs were treated with 0.3 ml of 0.6 M perchloric acid under sonication after Ang II treatment. Precipitates were removed by centrifugation at 20,000×g for 10 min. […] After centrifugation for 10 min at 1500×g, the aqueous layer was collected and neutralized with 20 mM sodium phosphate (pH 8). To remove all contaminating nucleotides, the samples were incubated with the following hydrolytic enzymes overnight at 37° C.: 0.44 unit/ml nucleotide pyrophosphatase, 12.5 units/ml alkaline phosphatase, 0.0625 unit/ml NADase, and 2.5 mM MgCl2 in 20 mM sodium phosphate buffer (pH 8.0). Enzymes were removed by filtration using Centricon-3 filters. […] An increase in the resorufin fluorescence was measured at 544 nm excitation and 590 nm emission using a fluorescence plate reader (Molecular Devices Corp., Spectra-Max GEMINI). […] Measurement of [cADPR]i in cardiomyocytes were determined as described above examples 5. […]

[2] = test system: Ang II induced [Ca^2+]i increase in rat cardiomyocytes; assay: Ang II-mediated [Ca2+]i increase in cardiomyocytes; type: cell-based; details: pretreatment with 1 mM; sustained but not initial Ca2+
Experimental: Cardiomyocytes were isolated from Sprague-Dawley rats, weighing 210-240 g, by the method with a slight modification [Xie et al., Biochem. Biophys. Res. Commun. (2005)330:1290-8]. Rat hearts were rapidly excised, cannulated, and subjected to retrograde perfusion on a Langendorff apparatus at 37° C. with Ca^2+-free Krebs-Hanseleit (KH) buffer (10 mM HEPES, 118 mM NaCl, 4.7 mM KCl, 1.2 mM MgSO4, 1.2 mM KH2PO4, 25 mM NaHCO3, 10 mM pyruvate, 11 mM glucose, and […], pH 7.3) for 5 min and then with KH buffer containing 5 mM taurine, 0.075% collagenase Type II and 0.08 mg/l protease type XTV for 7-15 min and washed with KH buffer containing 0.2 mM Ca^2+. The left ventricle was removed, chopped into small pieces and further digested in a glass conical flask at 37° C. for 10 min with shaking. The undigested tissues were removed through a […] nylon sheet. […] Isolated myocytes were pelleted by centrifugation at 60×g for 2 min at room temperature and resuspended in a stabilizing buffer (pH, 7.4) containing 20 mM HEPES, 137 mM NaCl, 4.9 mM KCl, 1.2 mM MgSO4, 15 mM glucose, and 10 mM 2,3-butanedione monoxime (BDM). […] Changes in [Ca^2+]i in cardiomyocytes were determined at 488 nm excitation/530 nm emission by air-cooled argon laser system. The emitted fluorescence at 530 nm was collected using a photomultiplier. […]

[3] = test system: ADPR-cyclase purified partially from rat heart; assay: ADPR-cyclase activity assay, heart enzyme; type: biochemical; design: dose or concentration left out as unconfirmed
Experimental: (§1) FIGS. 1A and 1B show the inhibition of rat kidney ADPR-cyclase that was incubated with […] NGD^+ or e-NAD^+ in the presence of various concentrations of 4,4′-dihydrioxyazobenzene (DHAB) at 37° C. for 10 min and effects of DHAB on human CD38, rat brain, heart, spleen, and kidney ADPR-cyclase. FIGS. 1A and 1B are referred to as FIG. 1 herein.
(§2) Specific ADPR-cyclase activity was determined by measuring cyclic GDP-ribose (cGDPR) or etheno-ADP-ribose (e-cADPR) fluorometrically using NGD^+ or e-NAD^+ as a substrate [Greaff et al., Biochem. J. (2002)361:379-84]. Samples were incubated in the presence […] NGD^+ or e-NAD^+ with and without an appropriate agent in an assay buffer (25 mM HEPES, pH 7.4, 100 mM NaCl, and 0.1% Triton X-100) in a […]. The reaction mixture was incubated at 37° C. for 10 min. The reaction was stopped by adding […] trichloroacetic acid (10%). […] Fluorescence of cGDPR or e-ADPR in the solution was determined at excitation/emission wavelengths of 297/410 nm (HITACHI F-2000 fluorescence spectrophotometer). cADPR-hydrolase activity was determined by incubating cADPR with ADPR-cyclase or CD38 at 37° C. for 20 min. Hydrolysis of cADPR was analyzed by high performance liquid chromatography as described (White et al., 2000). […]

[4] = test system: ADPR-cyclase purified partially from rat brain; assay: ADPR-cyclase activity assay, brain enzyme; type: biochemical; design: dose or concentration left out as unconfirmed
Experimental: as §1, §2

human CD38 = molecular target: T1, human CD38 (Homo sapiens, UniProt P28907); assay: ADPR-cyclase activity assay, CD38; type: biochemical; design: dose or concentration left out as unconfirmed
T1 sequence (P28907 1-300): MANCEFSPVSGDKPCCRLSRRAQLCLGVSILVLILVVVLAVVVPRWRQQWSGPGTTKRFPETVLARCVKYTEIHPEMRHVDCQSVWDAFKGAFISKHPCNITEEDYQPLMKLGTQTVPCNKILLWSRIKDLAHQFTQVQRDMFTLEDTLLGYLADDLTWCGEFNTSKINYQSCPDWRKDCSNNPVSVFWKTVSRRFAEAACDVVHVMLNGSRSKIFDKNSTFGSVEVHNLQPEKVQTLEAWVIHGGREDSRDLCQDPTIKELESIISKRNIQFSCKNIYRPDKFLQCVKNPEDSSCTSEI
Experimental: as §1, §2

SMILES	effect on Ang II-mediated [cADPR]i [1]	effect on Ang II-evoked sustained Ca2+ increase [2]	sensitivity of enzyme activity to compound [3]	sensitivity of enzyme activity to compound [4]	sensitivity of enzyme activity to compound (human CD38)
Oc1ccccc1/N=N/c1ccccc1O [2,2′-DHAB, 2,2′-Dihydroxyazobenzene]	inhibited	significantly blocked	–	–	–
Oc1ccc(N=Nc2ccc(O)cc2)cc1 [4,4′-DHAB, 4,4′-Dihydroxyazobenzene]	–	–	insensitive	insensitive	insensitive
